# Tested on: 454973-116-R2-J3-PDC spheroids, percent test/control viability
# Assay: Anticancer human tumor 454973-116-R2-J3-PDC patient-derived pancreatic carcinoma cell line growth inhibition [CLK]
# Details: spheroids with HUVEC and MSC; for IC50: curve of first compound; for viability, T/C: stronger effect = lower value
# Procedure, shortened: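 Patient-derived tumor cells grown as complex spheroids with HUVEC endothelial cells and mesenchymal stem cells, treated with drug combinations. Concentrations descend in half-log steps from near clinical Cmax, or from 10 microM if Cmax unknown.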
# [1] = second compound 0.0316 µM, first compound 0.0316 µM
# [2] = second compound 0.0316 µM, first compound 0.1 µM
# [3] = second compound 0.0316 µM, first compound 0.316 µM
# [4] = second compound 0.0316 µM, first compound 1 µM
# [5] = second compound 0.0316 µM, first compound 3.16 µM
# [6] = second compound 0.0316 µM, first compound 10 µM
# [7] = second compound 0.1 µM, first compound 0.0316 µM
# [8] = second compound 0.1 µM, first compound 0.1 µM
# [9] = second compound 0.1 µM, first compound 0.316 µM
# [10] = second compound 0.1 µM, first compound 1 µM
# [11] = second compound 0.1 µM, first compound 3.16 µM
# [12] = second compound 0.1 µM, first compound 10 µM
# [13] = second compound 0.316 µM, first compound 0.0316 µM
# [14] = second compound 0.316 µM, first compound 0.1 µM
# [15] = second compound 0.316 µM, first compound 0.316 µM
# [16] = second compound 0.316 µM, first compound 1 µM
# [17] = second compound 0.316 µM, first compound 3.16 µM
# [18] = second compound 0.316 µM, first compound 10 µM
# [19] = second compound 1 µM, first compound 0.0316 µM
# [20] = second compound 1 µM, first compound 0.1 µM
# [21] = second compound 1 µM, first compound 0.316 µM
# [22] = second compound 1 µM, first compound 1 µM
# [23] = second compound 1 µM, first compound 3.16 µM
# [24] = second compound 1 µM, first compound 10 µM
# [25] = second compound 3.16 µM, first compound 0.0316 µM
# [26] = second compound 3.16 µM, first compound 0.1 µM
# [27] = second compound 3.16 µM, first compound 0.316 µM
# [28] = second compound 3.16 µM, first compound 1 µM
# [29] = second compound 3.16 µM, first compound 3.16 µM
# [30] = second compound 3.16 µM, first compound 10 µM
# [31] = second compound 10 µM, first compound 0.0316 µM
# [32] = second compound 10 µM, first compound 0.1 µM
# [33] = second compound 10 µM, first compound 0.316 µM
# [34] = second compound 10 µM, first compound 1 µM
# [35] = second compound 10 µM, first compound 3.16 µM
# [36] = second compound 10 µM, first compound 10 µM
# 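Further: spheroids exposed to compounds for 7 days before readout.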
compound,measurement,setting,value
C#Cc1c(F)ccc2cc(O)cc(-c3ncc4c(N5CC6CCC(C5)N6)nc(OCC56CCCN5CC(F)C6)nc4c3F)c12 (stereo not drawn) + CN1CCN(c2cc(C(=O)Nc3cc4cc(-c5cnn(C)c5)ccc4cn3)ccn2)CC1,IC50,second compound 0.0316 µM,34.7 nM
same,IC50,second compound 0.1 µM,< 31.6 nM
same,IC50,second compound 0.316 µM,< 31.6 nM
same,IC50,second compound 1 µM,< 31.6 nM
same,IC50,second compound 3.16 µM,< 31.6 nM
same,IC50,second compound 10 µM,< 31.6 nM
same,"viability, T/C",[1],51%
same,"viability, T/C",[2],40.5%
same,"viability, T/C",[3],29.7%
same,"viability, T/C",[4],30.5%
same,"viability, T/C",[5],26.4%
same,"viability, T/C",[6],21.7%
same,"viability, T/C",[7],42%
same,"viability, T/C",[8],35.6%
same,"viability, T/C",[9],29.6%
same,"viability, T/C",[10],21.9%
same,"viability, T/C",[11],22.5%
same,"viability, T/C",[12],16.6%
same,"viability, T/C",[13],2.95%
same,"viability, T/C",[14],4.54%
same,"viability, T/C",[15],2.86%
same,"viability, T/C",[16],2.52%
same,"viability, T/C",[17],2.6%
same,"viability, T/C",[18],2.24%
same,"viability, T/C",[19],0.11%
same,"viability, T/C",[20],0.13%
same,"viability, T/C",[21],0.46%
same,"viability, T/C",[22],0.08%
same,"viability, T/C",[23],0.12%
same,"viability, T/C",[24],0.4%
same,"viability, T/C",[25],0.06%
same,"viability, T/C",[26],0.9%
same,"viability, T/C",[27],0.56%
same,"viability, T/C",[28],0.07%
same,"viability, T/C",[29],0.09%
same,"viability, T/C",[30],1.64%
same,"viability, T/C",[31],0.11%
same,"viability, T/C",[32],0.13%
same,"viability, T/C",[33],0.73%
same,"viability, T/C",[34],0.56%
same,"viability, T/C",[35],0.92%
same,"viability, T/C",[36],0.5%
C#Cc1c(F)ccc2cc(O)cc(-c3ncc4c(N5CC6CCC(C5)N6)nc(OCC56CCCN5CC(F)C6)nc4c3F)c12 (stereo not drawn) + CNC(=O)c1ccc(Nc2nc(OC3CCCC3)c3c(-c4ccc5nc(C)oc5c4)c[nH]c3n2)c(OC)c1,IC50,second compound 0.0316 µM,40.1 nM
same,IC50,second compound 0.1 µM,35 nM
same,IC50,second compound 0.316 µM,< 31.6 nM
same,IC50,second compound 1 µM,< 31.6 nM
same,IC50,second compound 3.16 µM,< 31.6 nM
same,IC50,second compound 10 µM,< 31.6 nM
same,"viability, T/C",[1],52.8%
same,"viability, T/C",[2],41.1%
same,"viability, T/C",[3],32.7%
same,"viability, T/C",[4],32.5%
same,"viability, T/C",[5],29.4%
same,"viability, T/C",[6],22.4%
same,"viability, T/C",[7],50.7%
same,"viability, T/C",[8],43.8%
same,"viability, T/C",[9],33.5%
same,"viability, T/C",[10],27.5%
same,"viability, T/C",[11],26%
same,"viability, T/C",[12],15.1%
same,"viability, T/C",[13],37.8%
same,"viability, T/C",[14],30.9%
same,"viability, T/C",[15],19.4%
same,"viability, T/C",[16],12.7%
same,"viability, T/C",[17],13.8%
same,"viability, T/C",[18],12.1%
same,"viability, T/C",[19],16.7%
same,"viability, T/C",[20],12.7%
same,"viability, T/C",[21],12.2%
same,"viability, T/C",[22],12.7%
same,"viability, T/C",[23],10.9%
same,"viability, T/C",[24],7.84%
same,"viability, T/C",[25],15.9%
same,"viability, T/C",[26],12.7%
same,"viability, T/C",[27],11.3%
same,"viability, T/C",[28],11.3%
same,"viability, T/C",[29],9.18%
same,"viability, T/C",[30],6.34%
same,"viability, T/C",[31],17.9%
same,"viability, T/C",[32],12.4%
same,"viability, T/C",[33],11.5%
same,"viability, T/C",[34],12%
same,"viability, T/C",[35],10.3%
same,"viability, T/C",[36],5.25%
CC(CO)NC(=O)c1cc(-c2ccc(Cl)cc2)nn(-c2cnn(C)c2)c1=O (stereo not drawn) + CNC(=O)c1ccc(Nc2nc(OC3CCCC3)c3c(-c4ccc5nc(C)oc5c4)c[nH]c3n2)c(OC)c1,IC50,second compound 0.0316 µM,> 10000 nM
same,IC50,second compound 0.1 µM,> 10000 nM
same,IC50,second compound 0.316 µM,< 31.6 nM
same,IC50,second compound 1 µM,< 31.6 nM
same,IC50,second compound 3.16 µM,< 31.6 nM
same,IC50,second compound 10 µM,< 31.6 nM
same,"viability, T/C",[1],105%
same,"viability, T/C",[2],96.5%
same,"viability, T/C",[3],111%
same,"viability, T/C",[4],112%
same,"viability, T/C",[5],100%
same,"viability, T/C",[6],77%
same,"viability, T/C",[7],105%
same,"viability, T/C",[8],105%
same,"viability, T/C",[9],96.2%
same,"viability, T/C",[10],99.7%
same,"viability, T/C",[11],101%
same,"viability, T/C",[12],80.8%
same,"viability, T/C",[13],46%
same,"viability, T/C",[14],41.3%
same,"viability, T/C",[15],47.2%
same,"viability, T/C",[16],37.1%
same,"viability, T/C",[17],45.2%
same,"viability, T/C",[18],43.5%
same,"viability, T/C",[19],33.7%
same,"viability, T/C",[20],32.9%
same,"viability, T/C",[21],32.8%
same,"viability, T/C",[22],31.6%
same,"viability, T/C",[23],30.8%
same,"viability, T/C",[24],32.1%
same,"viability, T/C",[25],24.5%
same,"viability, T/C",[26],31.7%
same,"viability, T/C",[27],30.2%
same,"viability, T/C",[28],30.5%
same,"viability, T/C",[29],34.9%
same,"viability, T/C",[30],29%
same,"viability, T/C",[31],30.3%
same,"viability, T/C",[32],31.7%
same,"viability, T/C",[33],31.8%
same,"viability, T/C",[34],27.6%
same,"viability, T/C",[35],29.3%
same,"viability, T/C",[36],24.7%
CCN1CCN(Cc2ccc(Nc3ncc(F)c(-c4cc(F)c5nc(C)n(C(C)C)c5c4)n3)nc2)CC1 + CNC(=O)c1ccc(Nc2nc(OC3CCCC3)c3c(-c4ccc5nc(C)oc5c4)c[nH]c3n2)c(OC)c1,IC50,second compound 0.0316 µM,> 1000 nM
same,IC50,second compound 0.1 µM,> 1000 nM
same,IC50,second compound 0.316 µM,< 3.16 nM
same,IC50,second compound 1 µM,< 3.16 nM
same,IC50,second compound 3.16 µM,< 3.16 nM
same,IC50,second compound 10 µM,< 3.16 nM
same,"viability, T/C","second compound 0.0316 µM, first compound 0.00316 µM",103%
same,"viability, T/C","second compound 0.0316 µM, first compound 0.01 µM",90.4%
same,"viability, T/C",[1],82.8%
same,"viability, T/C",[2],69.1%
same,"viability, T/C",[3],67.2%
same,"viability, T/C",[4],60.4%
same,"viability, T/C","second compound 0.1 µM, first compound 0.00316 µM",96.8%
same,"viability, T/C","second compound 0.1 µM, first compound 0.01 µM",84.7%
same,"viability, T/C",[7],79.2%
same,"viability, T/C",[8],67.2%
same,"viability, T/C",[9],63.4%
same,"viability, T/C",[10],56.2%
same,"viability, T/C","second compound 0.316 µM, first compound 0.00316 µM",44.8%
same,"viability, T/C","second compound 0.316 µM, first compound 0.01 µM",44.4%
same,"viability, T/C",[13],54.5%
same,"viability, T/C",[14],55.6%
same,"viability, T/C",[15],52.5%
same,"viability, T/C",[16],63.6%
same,"viability, T/C","second compound 1 µM, first compound 0.00316 µM",34.4%
same,"viability, T/C","second compound 1 µM, first compound 0.01 µM",34.1%
same,"viability, T/C",[19],39%
same,"viability, T/C",[20],43%
same,"viability, T/C",[21],43.3%
same,"viability, T/C",[22],47%
same,"viability, T/C","second compound 3.16 µM, first compound 0.00316 µM",30.6%
same,"viability, T/C","second compound 3.16 µM, first compound 0.01 µM",35.5%
same,"viability, T/C",[25],37.2%
same,"viability, T/C",[26],39.1%
same,"viability, T/C",[27],38.5%
same,"viability, T/C",[28],46.2%
same,"viability, T/C","second compound 10 µM, first compound 0.00316 µM",27.5%
same,"viability, T/C","second compound 10 µM, first compound 0.01 µM",27%
same,"viability, T/C",[31],33.5%
same,"viability, T/C",[32],37.8%
same,"viability, T/C",[33],41.8%
same,"viability, T/C",[34],47.3%

# Source: PubChem BioAssay AID2060618 (Molecular Pharmacology Branch, DTP, NCI, 2025)
